Assay results from patent US5521196A, “5-HT1F agonists for the treatment of migraine” (Eli Lilly and Company, priority 1994, dated 1996).

Assays:
[1] = tested on: protein extravasation in the dura from stimulation of the trigeminal ganglion; conditions: iv
neurogenic inflammation = conditions: in vivo; cited from earlier work
[2] = in vivo; cited from earlier work
[3] = tested on: cephalic vascular smooth muscle; conditions: cited from earlier work

CNS(=O)(=O)Cc1ccc2[nH]cc(CCN(C)C)c2c1.O=C(O)CCC(=O)O [Compound I, 3-[2-(dimethylamino)ethyl]-N-methyl-1H-indole-5-methanesulfonamide butane-1,4-dioate (1:1)]
Inhibition of Protein Extravasation, i.v. ID50 [1]: 2.6e-08 nmol/kg
block of neurogenic inflammation (neurogenic inflammation): blocked
effectiveness in the treatment of migraine [2]: effective in the treatment of migraine
contraction of cephalic vascular smooth muscle [3]: contract cephalic vascular smooth muscle
